From patent US10301317B2, “Inhibitors of ERK and methods of use” (Kura Oncology, Inc., priority 2013, dated 2019)

Key:
Format in all cases: cell-based
[1] = tested on: phospho-p90 RSK (RSK1 Thr359/Ser363) in A375 (Braf V600E) cells; experiment: Phospho-p90 RSK ELISA using A375 (Braf V600E) cells; conditions: Homo sapiens, A-375, 2 hours compound treatment, read-out: Cellular Phospho-p90RSK IC50
[2] = tested on: A375 cells; experiment: Tumor cell line proliferation assay (CellTiter Glo), A375; conditions: Homo sapiens, A-375, 96 h, read-out: A375 (V599E) Cell Proliferation IC50
[3] = tested on: WM-266-4 cells; experiment: Tumor cell line proliferation assay (CellTiter Glo), WM-266-4; conditions: Homo sapiens, 96 hours, read-out: WM-266-4 (V599D) Cell Proliferation IC50
[4] = tested on: H358 (Kras, G12C) cells; experiment: Tumor cell line proliferation assay (CellTiter Glo), H358; conditions: Homo sapiens, NCI-H358, 96 hours

Compound	IC50 [1] [nM]	IC50 [2] [nM]	IC50 [3] [nM]	IC50 [4] [nM]
Cc1cc(-c2n[nH]c3cc4c(cc23)CN(Cc2ccc(F)c(F)c2)C(=O)N4)ccn1 [Example 13]	≤ 250	250 to 1000	250 to 1000	
Cc1cc(-c2n[nH]c3cc4[nH]c(=O)n(Cc5ccccc5)c4cc23)ccn1 [Example 19]	250 to 1000	> 1000	> 1000	
Cc1cc(-c2n[nH]c3cc4c(cc23)CN([C@H](C)c2ccc(C#N)cc2)C(=O)N4)ccn1 [Example 23]	≤ 250	250 to 1000	> 1000	
COc1ccc(CN2Cc3cc4c(-c5ccnc(C)c5)n[nH]c4cc3NC2=O)cc1 [Example 10]	≤ 250	250 to 1000	≤ 250	
Cc1cc(-c2n[nH]c3cc4c(cc23)CN(Cc2ccc(C(F)(F)F)cc2)C(=O)N4)ccn1 [Example 12]	≤ 250	250 to 1000	≤ 250	
Cc1cc(-c2n[nH]c3cc4c(cc23)CN(Cc2ccc(Cl)cc2)C(=O)N4)ccn1 [Example 14]	≤ 250	250 to 1000	250 to 1000	
Cc1cc(-c2n[nH]c3cc4[nH]c(=O)c(Cc5ccc(F)cc5)cc4cc23)ccn1 [Example 21]	250 to 1000	250 to 1000	250 to 1000	
Cc1cc(-c2n[nH]c3cc4c(cc23)CN(Cc2ccc(F)cc2F)C(=O)N4)ccn1 [Example 11]	≤ 250	250 to 1000	≤ 250	
Cc1cc(-c2n[nH]c3cc4c(cc23)CN(CCc2ccc(F)cc2)C(=O)N4)ccn1 [Example 18]	≤ 250	250 to 1000	250 to 1000	
Cc1cc(-c2n[nH]c3cc4[nH]c(=O)n(Cc5ccc(F)c(Cl)c5)c(=O)c4cc23)ccn1 [Example 15]	250 to 1000	> 1000	> 1000	
COc1ncccc1CN1Cc2cc3c(-c4ccnc(C)c4)n[nH]c3cc2NC1=O [Example 9]	250 to 1000	> 1000	250 to 1000	
[2H]c1c([2H])c([2H])c(C([2H])([2H])N2CCC[C@@H](N3Cc4cc5c(-c6ccnc(C)c6)n[nH]c5cc4NC3=O)C2)c([2H])c1[2H] [Example 165]	≤ 250	≤ 250		≤ 250
Cc1cc(-c2n[nH]c3cc4[nH]c(=O)n(Cc5cccc(Cl)c5)c(=O)c4cc23)ccn1 [Example 24]		> 1000	> 1000	
COc1ncc(-c2n[nH]c3cc4c(cc23)CN(Cc2cccc(Cl)c2)C(=O)N4)cn1 [Example 68]	≤ 250	≤ 250		250 to 1000
Cc1cc(-c2n[nH]c3cc4c(cc23)CN([C@@H]2CCCN(c3ccc(F)cn3)C2)C(=O)N4)ccn1 [Example 199]	≤ 250	250 to 1000		250 to 1000
Cc1cc(-c2n[nH]c3cc4c(cc23)CN(Cc2cscn2)C(=O)N4)ccn1 [Example 47]	250 to 1000	> 1000		> 1000
Cc1cc(-c2n[nH]c3cc4c(cc23)CN([C@@H]2CCCN(C(C)c3cccc(Cl)c3)C2)C(=O)N4)ccn1 (some centres unmarked) [Example 180]	≤ 250	250 to 1000		250 to 1000
COc1cccc(F)c1CN1CCC[C@@H](N2Cc3cc4c(-c5ccnc(C)c5)n[nH]c4cc3NC2=O)C1 [Example 144]	≤ 250	≤ 250		≤ 250
Cc1cc(-c2n[nH]c3cc4c(cc23)CN(C2CCCCC2)C(=O)N4)ccn1 [Example 204]	250 to 1000	250 to 1000		> 1000
COc1ncc(-c2n[nH]c3cc4c(cc23)CN([C@@H]2CCCN(Cc3c(F)cccc3F)C2)C(=O)N4)cn1 [Example 102]	≤ 250	≤ 250		≤ 250
Cc1cc(-c2n[nH]c3cc4c(cc23)CN([C@@H]2CCCOC2)C(=O)N4)ccn1 [Example 49]	250 to 1000	> 1000		> 1000
Cc1cc(-c2n[nH]c3cc4c(cc23)CN([C@@H]2CCCN(CCC(C)(C)C)C2)C(=O)N4)ccn1 [Example 136]	250 to 1000	250 to 1000		> 1000
COc1ncc(-c2n[nH]c3cc4c(cc23)CN(Cc2ccc(F)cc2F)C(=O)N4)cn1 [Example 99]	≤ 250	250 to 1000		250 to 1000
O=C1Nc2cc3[nH]nc(-c4cncnc4)c3cc2CN1Cc1cccc(Cl)c1 [Example 123]	≤ 250	250 to 1000		250 to 1000
Cc1cc(-c2n[nH]c3cc4c(cc23)CN([C@@H]2CCCN(CC3CCCCC3)C2)C(=O)N4)ccn1 [Example 141]	≤ 250	250 to 1000		250 to 1000
COc1ncc(-c2n[nH]c3cc4c(cc23)CN([C@@H]2CCCN(Cc3ccccc3F)C2)C(=O)N4)cn1 [Example 101]	≤ 250	≤ 250		≤ 250

Compound	IC50 [1] [nM]	IC50 [2] [nM]	IC50 [3] [nM]	IC50 [4] [nM]
Cc1cc(-c2n[nH]c3cc4c(cc23)CN([C@@H]2CCCN(C(C)c3ccc(F)cc3)C2)C(=O)N4)ccn1 (some centres unmarked) [Example 179]	≤ 250	250 to 1000		250 to 1000
Cc1cc(-c2n[nH]c3cc4c(cc23)CN([C@@H]2CCCN(CC(F)(F)F)C2)C(=O)N4)ccn1 [Example 193]	≤ 250	250 to 1000		250 to 1000
Cc1cc(-c2n[nH]c3cc4c(cc23)CN([C@@H]2CCCN(Cc3cccnc3C(F)(F)F)C2)C(=O)N4)ccn1 [Example 161]	≤ 250	250 to 1000		250 to 1000
Cc1cc(-c2n[nH]c3cc4c(cc23)CN(C2CN(CC3CCCC3)CC(F)(F)C2)C(=O)N4)ccn1 (centres unmarked) [Example 201]	> 1000	> 1000		> 1000
Cc1cc(-c2n[nH]c3cc4c(cc23)CN([C@@H]2CCCN(Cc3ccc(F)c(F)c3)C2)C(=O)N4)ccn1 [Example 190]	≤ 250	≤ 250		250 to 1000
Cc1cc(-c2n[nH]c3cc4[nH]c(=O)c([C@H](C)c5ccccc5)cc4cc23)ccn1 [Example 84]	≤ 250	≤ 250		≤ 250
Cc1cc(-c2n[nH]c3cc4c(cc23)CN([C@@H]2CCCN(CC3CCCC3)C2)C(=O)N4)ccn1 [Example 138]	250 to 1000	250 to 1000		> 1000
Cn1cc(-c2n[nH]c3cc4c(cc23)CN(Cc2ccc(F)c(Cl)c2)C(=O)N4)cn1 [Example 31]	≤ 250	250 to 1000		250 to 1000
Cc1cc(-c2n[nH]c3cc4c(cc23)CN([C@@H]2CCN(Cc3c(F)cccc3F)C2)C(=O)N4)ccn1 [Example 147]	≤ 250	250 to 1000		≤ 250
Cc1cc(-c2n[nH]c3cc4c(cc23)CN([C@@H]2CCCNC2)C(=O)N4)ccn1 [Example 32]	> 1000	> 1000		> 1000
Cc1cc(-c2n[nH]c3cc4c(cc23)CC(C(C)c2cccc(Cl)c2)C(=O)N4)ccn1 (centres unmarked) [Example 181]	≤ 250	≤ 250		≤ 250
Cc1cc(-c2n[nH]c3cc4c(cc23)CN([C@@H]2CCCN(C)C2)C(=O)N4)ccn1 [Example 33]	> 1000	> 1000		> 1000
Cc1cc(-c2n[nH]c3cc4c(cc23)CN([C@@H]2CCCN(CCC(F)(F)F)C2)C(=O)N4)ccn1 [Example 178]	≤ 250	250 to 1000		250 to 1000
COc1ncc(-c2n[nH]c3cc4c(cc23)CN(Cc2ccc(F)c(Cl)c2)C(=O)N4)cn1 [Example 37]	≤ 250	250 to 1000		250 to 1000
Cc1cc(-c2n[nH]c3cc4c(cc23)CN(Cc2cccc(Cl)c2)C(=O)N4)cc(C)n1 [Example 77]	≤ 250	≤ 250		250 to 1000
CCC(c1ccccc1)c1cc2cc3c(-c4ccnc(C)c4)n[nH]c3cc2[nH]c1=O (centres unmarked) [Example 64]	≤ 250	≤ 250		≤ 250
Cc1cc(-c2n[nH]c3cc4c(cc23)CN([C@@H]2CCCN(Cc3ccc(F)cc3F)C2)C(=O)N4)ccn1 [Example 196]	≤ 250	≤ 250		≤ 250
Cc1cc(-c2n[nH]c3cc4c(cc23)CN([C@@H]2CCCN(Cc3cc(C)no3)C2)C(=O)N4)ccn1 [Example 139]	250 to 1000	250 to 1000		250 to 1000
Cc1cc(-c2n[nH]c3cc4[nH]c(=O)c(C(O)c5ccccc5)cc4cc23)ccn1 (centres unmarked) [Example 221]	250 to 1000	250 to 1000		250 to 1000
O=C1Nc2cc3[nH]nc(-c4ccnnc4)c3cc2CN1[C@@H]1CCCN(Cc2ccccc2)C1 [Example 120]	≤ 250	250 to 1000		250 to 1000
COc1ncc(-c2n[nH]c3cc4c(cc23)CN([C@@H]2CCCN(Cc3c(F)cccc3OC)C2)C(=O)N4)cn1 [Example 103]	≤ 250	≤ 250		≤ 250
Cc1cc(-c2n[nH]c3cc4c(cc23)CN(C2CN(Cc3cc(F)cc(F)c3)CC(F)(F)C2)C(=O)N4)ccn1 (centres unmarked) [Example 202]	> 1000	> 1000		> 1000
Cc1cc(-c2n[nH]c3cc4c(cc23)CN([C@@H]2CCCN(Cc3c(F)cccc3F)C2)C(=O)N4)ccn1 [Example 143]	≤ 250	≤ 250		≤ 250
COc1ccc(-c2n[nH]c3cc4c(cc23)CN(Cc2ccc(F)c(Cl)c2)C(=O)N4)cn1 [Example 36]	250 to 1000	250 to 1000		250 to 1000
Cc1cc(-c2n[nH]c3cc4c(cc23)CN(Cc2ccc(C#N)cc2)C(=O)N4)ccn1 [Example 39]	250 to 1000	> 1000		250 to 1000
Cn1cc(-c2n[nH]c3cc4c(cc23)CN(Cc2ccc(F)c(Cl)c2)C(=O)N4)ccc1=O [Example 41]	≤ 250	250 to 1000		250 to 1000
